# Where “and” joins values, the source holds several entries; their conditions need not be identical. Identical values can stand only once.
# Tests used:
# fertility of male mice = experiment: Timed mating of inhibitor-injected male mice; type: in vivo, mouse; conditions: for Contraceptive efficacy: compared to vehicle-injected control
# Method: Single-housed naïve (i.e., uninjected and virgin) male and female C57B1/6 mice were acclimatized to reverse light cycle (dark: 11 am to 11 pm) for at least two weeks. […] Pregnancy and litter size were assessed in two ways. Either females were sacrificed 7 days following mating and implanted embryos counted, or females were permitted to go to term (21 days) and pups counted. A subset of the pups (both male and female) born from breakthrough pregnancies were permitted to mature and their fertility assessed in standard matings.
# epididymal mouse sperm = experiment: Ex vivo cAMP in epididymal sperm from injected mice; conditions: 50 mg/kg i.p.; for bicarbonate-induced cAMP increase ex vivo: sperm isolated one hour after injection, minimally diluted
# Method: Sperm (50 μl) isolated at indicated time points (between 1 hour and 24 hours post-injection) were incubated in […] (1:20 dilution) or 450 μl (1:200 dilution) non-capacitating or capacitating TYH media for 12 minutes. Intracellular cAMP levels were quantified using the Direct cAMP ELISA (Enzo) as above.
# [1] = tested on: wild type (WT) C57B1/6 mouse eyes; experiment: Intraocular pressure (IOP) study; type: in vivo; conditions: one hour post ip injection
# Method: A mouse was anesthetized via intraperitoneal (ip) injection of room temperature ketamine/xylazine. Anesthesia was assessed by pinching back. The anesthetized mouse was placed on a platform. The anterior chamber was cannulated using a 33-gauge stainless steel needle. The needle was inserted anterior to the limbus and through the cornea. The cannula was connected to a pressure transducer using teflon tubing and was calibrated to a water height equivalent of 0 mm Hg. The transducer signal was amplified, converted to a digital signal, and the voltage was recorded using LabScribe3 software. IOP was calculated by comparing the change in voltage to a standard calibration curve generated at the end of each experiment using the water height column.
# [2] = tested on: wild type C57B1/6 male mice; experiment: Imiquimod-induced type 17 skin inflammation, topical treatment; type: in vivo, mouse
# Method: Wild type C57B1/6 male mice 8-10 week old were purchased from Jackson labs. A 7 mm diameter circle was shaved and treated with Nair on the flank. Baseline ear thickness was measured. For 5 days, mice received daily treatment of 30 mg of 5% imiquimod cream (Taro) to each ear and to the 7 mm area on the flank. Ear thickness was recorded on days 3 and 5 to ensure peak inflammation had occurred. Mice were then randomized into three cohorts: vehicle, LRE1, and Clobetasol. […] Treatment with imiquimod was continued during this period as above. Ear thickness was recorded every day before the first dose of drug. On day 11, all mice were euthanized. A 7 mm punch biopsy was collected from the flank and both ears were removed. Skin was stored in RNAlater (Sigma) for qPCR or 10% formalin for immunohistochemistry.
# For tissue, RNA was isolated according to specifications of the RNA easy plus universal mini kit (Qiagen). Tissue was homogenized using stainless steel beads in a bead beater. For frozen cell pellets, RNA was isolated according to specifications of the RNA easy plus mini kit (Qiagen). Samples were homogenized using Qiashredder columns (Qiagen). RNA quality control was performed using a nanodrop spectrophotometer. cDNA was made using the high-capacity rna-to-cdna kit (thermo fischer). The applied biosystems power SYBR green PCR master mix was used for qPCR. 40 cycles with annealing temperatures of 60 degrees celsius and a melting curve were performed using the QuantStudio 6 real-time PCR instrument (thermo fischer). Delta delta CT analysis was performed to determine relative transcription amongst samples normalized to GAPDH.
# human sperm [3] = experiment: Human sperm hyperactivation (CASA); type: cell-based; conditions: for hyperactivation of human sperm in vitro: capacitating media, inhibitor present; for inhibition of hyperactivation following dilution into inhibitor-free media: preincubation with 10 μM Example 1 or 100 nM Example 133, diluted 1:100
# Method: For human sperm, hyperactivation was assessed via CASA following incubation for 1 hour in non-capacitating HTF buffer or capacitating HTF buffer supplemented with 25 mM HCO3 and 5 mg/ml BSA in the presence or absence of the indicated concentration of sAC inhibitor; 0.1% DMSO was used as vehicle control. For rescue experiments, sperm were incubated in the presence of 5 mM db-cAMP and 500 μM IBMX. 8 μl sperm suspension was placed onto a microscope slide (Gold Seal, Erie Scientific, Portsmouth, NH) and covered with a 18×18 mm coverslip (globe Scientific, Mahway, NJ) to create a […] imaging chamber. CASA was performed following analysis guidelines provided by the company, i.e., 30 frames were acquired at a rate of 60 Hz, at least 200 sperm were analyzed per condition. The following parameters were measured: mean path velocity (VAP, μm/sec), curvilinear velocity (VCL, μm/sec), straight-line velocity (VSL, μm/sec), amplitude of lateral head displacement (ALH, μm), and beat cross frequency (BCF, Hz). Human sperm were considered hyperactivated when presenting VCL ≥150 μm/sec, LIN <50%, and ALH ≥[…].
# Motility parameters were determined 1 to 45 minutes post dilution, DMSO-treated non-capacitated and capacitated human sperm were used as control. To calculate the percentage of inhibition, the hyperactivation percentage of sperm diluted in inhibitor-containing- or inhibitor-free media was normalized to the hyperactivation percentage of vehicle-treated capacitated sperm at the respective time point and subtracted from 100%.
# human sperm [4] = experiment: Acrosome reaction assay; type: cell-based; conditions: 5 μM Example 1 or 10 nM Example 133; 10 μM progesterone
# Method: For analysis of acrosomal exocytosis, 100 μl of 1×10^7 sperm/ml were capacitated for 90 minutes in TYH buffer supplemented with 3 mg/ml BSA and 25 mM NaHCO3 (mouse sperm) or HTF buffer supplemented with […] HSA and 25 mM NaHCO3 (human sperm). sAC inhibitors were added with capacitating buffer; 0.1% DMSO was used as vehicle control. Acrosome reaction was induced by incubating mouse sperm with 50 mouse solubilized zonae pellucidae for 15 minutes at 37° C., or human sperm with 10 μM progesterone for 30 minutes at 37° C. The sperm suspensions were sedimented by centrifugation at 2,000×g for 5 minutes and the sedimented sperm were resuspended in 100 μl PBS buffer. Samples were air-dried on microscope slides and fixed for 30 minutes in 100% ethanol at room temperature (RT). For acrosome staining, mouse and human sperm were incubated for 30 minutes in the dark with 5 μg/ml PNA-FITC or 5 μg/ml PSA-FITC, respectively, and counterstained with 2 μg/ml DAPI. After curing, slides were analyzed using a Zeiss LSM 880 Laser Scanning Confocal Microscope; images were captured with two photomultiplier and one Gallium Arsenide Phosphide detector using ZEN Imaging software. For each condition, at least 600 cells were analyzed using ImageJ 1.52.
# [5] = 50 mg/kg i.p. to males, mating time 8 hours
# [6] = 50 mg/kg i.p. to males, mating time 5 hours
# [7] = 50 mg/kg i.p. to males, mating time 11 hours
# [8] = 50 mg/kg i.p., mating 4 days, 1 week post-injection (recovery of fertility)
smiles,measurement,setting,value
"Cc1c(Cc2ccccc2)c(-c2cc(Cl)nc(N)n2)nn1C [Example 1, 4-(4-benzyl-1,5-dimethyl-pyrazol-3-yl)-6-chloro-pyrimidin-2-amine]",Pregnancy pairings (pregnancies per total pairings),fertility of male mice; [5],(14/45)
same,Pregnancy rate,fertility of male mice; [5],31.1%
same,Contraceptive efficacy,fertility of male mice; [5],25%
same,bicarbonate-responsive cAMP synthesis ex vivo,epididymal mouse sperm; sperm diluted 1:200 ex vivo,restored
same,bicarbonate-induced cAMP increase ex vivo,epididymal mouse sperm,absent
same,intraocular pressure (IOP),[1],dose dependently elevates IOP
same,inflammation in the ears measured by ear calipers,"[2]; applied at the same time as imiquimod, N=5",reduce the inflammation
same,skin inflammation (ear thickness),"[2]; imiquimod 6 days, then continued imiquimod plus topical twice a day: LRE1 3%, Example 1 […], Clobetasol 0.05%",significant reduction in skin inflammation
same,reduction in inflammation,"[2]; imiquimod for one week, then imiquimod plus compound, over 4 days, N=5",50%
same,hyperactivation of human sperm in vitro,human sperm [3],blocked hyperactivation
same,inhibition of hyperactivation following dilution into inhibitor-free media,human sperm [3],lost
Nc1nc(Cl)cc(-c2nn(C(F)F)cc2Cc2ccccc2OCCN2CCOC[C@H]2CO)n1 [Example 133],"mouse behavior, movements and mating behaviors",fertility of male mice; 50 mg/kg i.p.,did not adversely affect mouse behavior
same,Pregnancy pairings (pregnancies per total pairings),fertility of male mice; [6],(3/92)
same,Pregnancy rate,fertility of male mice; [6],3.3% and 3.2%
same,Contraceptive efficacy,fertility of male mice; [6],90%
same,Pregnancy pairings (pregnancies per total pairings),fertility of male mice; [5],(3/40)
same,Pregnancy rate,fertility of male mice; [5],7.2% and 7.5%
same,Contraceptive efficacy,fertility of male mice; [5],82%
same,Pregnancy pairings (pregnancies per total pairings),fertility of male mice; [7],(7/45)
same,Pregnancy rate,fertility of male mice; [7],16% and 15.6%
same,Contraceptive efficacy,fertility of male mice; [7],65%
same,Pregnancy pairings (pregnancies per total pairings),fertility of male mice; [8],(13/14)
same,Pregnancy rate,fertility of male mice; [8],93% and 92.9%
same,blocking acrosome reaction induced by progesterone,human sperm [4],more potent than Example 1
same,cAMP responsiveness ex vivo following dilution,"epididymal mouse sperm; 9 hours post-injection, diluted 1:200",partially recovered
same,cAMP response ex vivo following dilution,"epididymal mouse sperm; sperm isolated 1 hour or 4.5 hours post-injection, diluted 1:200",remained inhibited
same,bicarbonate-induced cAMP increase ex vivo,epididymal mouse sperm,absent
same,hyperactivation of human sperm in vitro,human sperm [3],blocked hyperactivation
same,inhibition of hyperactivation following dilution into inhibitor-free media,human sperm [3],persisted
